One experiment concerns Hepatitis B virus. Particulars: prior art, Science, 299 (2003), 893-896; cited from earlier work.
The next experiment deals with HBV. The experiment can be described thus: qPCR assay for HBV in vitro test (HBV DNA content in HepG2.2.15 cells). Type of experiment: cell-based. On the procedure:
qPCR Assay for HBV In Vitro Test
The HBV DNA content in HepG2.2.15 cells was detected by real-time qPCR assay, and the EC50 values of the compounds were used as indicators to evaluate the inhibitory effect of the compounds on HBV.
2.1 Cell Line: HepG2.2.15 Cells
3.1 HepG2.2.15 cells (4×10^4 cells/well) were seeded in a 96-well plate and incubated at 37° C. under 5% CO 2 overnight.
3.2 On the second day, the compound was diluted into a total of 8 concentrations with 3-fold gradient dilution. Different concentrations of the compound were added to the culture wells, in duplicate. The final concentration of DMSO in the culture medium was 1%. 1 μM GLS4 was used as 100% inhibition control; 1% DMSO was used as 0% inhibition control.
3.3 On the fifth day, the fresh culture medium containing the compound was replaced.
3.4 On the eighth day, the culture medium in the culture wells was collected and DNA was extracted using a high-throughput DNA purification kit (Qiagen-51162). Refer to the product manual for the specific procedure.
3.1 15 μl of reaction mixture was added to each well of a 96-well PCR plate, then 10 μl of sample DNA or standard of HBV DNA to each well.
3.2 PCR reaction conditions: heating at 95° C. for 10 minutes; then denaturing at 95° C. for 15 seconds, extension at 60° C. for 1 minute, a total of 40 cycles. […]

On to `Nc1ccn([C@@H]2CS[C@H](CO)O2)c(=O)n1` [Iamivudine], for which the IC50 in the experiment on Hepatitis B virus is 300 nM. For `COC(=O)C1=C2C[C@H](NS(N)(=O)=O)CN2C(c2nccs2)=N[C@H]1c1ccc(F)c(F)c1F` [Compound 1], in the experiment with HBV (Hepatitis B virus, 192 h, HBV DNA in culture medium by real-time qPCR, day 8, read-out: Concentration for 50% of inhibition (EC50) value on HBV), the EC50 was at most 100 nM. Further, the “inhibitory effect on HBV DNA” value in the experiment with HBV (qPCR, conclusion in words) was “significant inhibitory effect on HBV DNA”.

The values are drawn from patent US10253030B2, “Crystal form, preparation method and intermediate of dihydropyrido ring compound” (QILU PHARMACEUTICAL CO., LTD., priority 2015, dated 2019).
